Laboratory results published in ChEMBL document CHEMBL1159379, “Rhuschalcones II-VI, five new bichalcones from the root bark of Rhus pyroides” (2003).
Converted amounts (≈) assume the structure as drawn.

How the values were obtained:
Type in all cases: functional
HT-29 = assay: Cytotoxicity against human HT-29 cells; settings: read-out: ED50 (the source's name)
HCT-15 = assay: Cytotoxicity against human HCT15 cells; settings: read-out: ED50 (the source's name)
COLO 205 = assay: Cytotoxicity against human COLO205 cells; settings: read-out: ED50 (the source's name)
SW-620 = assay: Cytotoxicity against human SW620 cells; settings: read-out: ED50 (the source's name)
KM12 = assay: Cytotoxicity against human KM12 cells; settings: read-out: ED50 (the source's name)
HCT-116 = assay: Cytotoxicity against human HCT116 cells; settings: read-out: ED50 (the source's name)
SK-MEL-5 = assay: Cytotoxicity against human SK-MEL-5 cells; settings: read-out: LC50 (the source's name)
UACC-62 = assay: Cytotoxicity against human UACC62 cells; settings: read-out: LC50 (the source's name)
SK-MEL-28 = assay: Cytotoxicity against human SK-MEL-28 cells; settings: read-out: LC50 (the source's name)

SMILES | EC50 (HT-29) [µg/mL] | EC50 (HCT-15) [µg/mL] | EC50 (COLO 205) [µg/mL] | EC50 (SW-620) [µg/mL] | EC50 (KM12) [µg/mL] | EC50 (HCT-116) [µg/mL] | CC50 (SK-MEL-5) [µg/mL] | CC50 (UACC-62) [µg/mL] | CC50 (SK-MEL-28) [µg/mL]
COc1cc(O)c(C(=O)/C=C/c2ccc(O)cc2)cc1Oc1ccc(/C=C/C(=O)c2ccc(O)cc2O)cc1 [RHUSCHALCONE III] | 3 (≈ 5.72 µM) | 4 (≈ 7.63 µM) | 4 (≈ 7.63 µM) | 3 (≈ 5.72 µM) | 4 (≈ 7.63 µM) | 5 (≈ 9.53 µM) |  |  | 
O=C(/C=C/c1ccc(Oc2cc(C(=O)/C=C/c3ccc(O)cc3)c(O)cc2O)cc1)c1ccc(O)cc1O [RHUSCHALCONE II] | 14 (≈ 27.4 µM) |  | 15 (≈ 29.4 µM) |  | 19 (≈ 37.2 µM) | 15 (≈ 29.4 µM) |  |  | 
COc1cc(O)c(C(=O)/C=C/c2ccc(O)cc2)cc1Oc1ccc(C(=O)/C=C/c2ccc(O)cc2)c(O)c1 [RHUSCHALCONE IV] |  |  | 23 (≈ 43.8 µM) |  |  |  | 4.8 (≈ 9.15 µM) | 4.6 (≈ 8.77 µM) | 4.6 (≈ 8.77 µM)
COc1ccc(C(=O)/C=C/c2ccc(Oc3cc(C(=O)/C=C/c4ccc(O)cc4)c(O)cc3OC)cc2)c(O)c1 [RHUSCHALCONE I] | 3 (≈ 5.57 µM) | 51 (≈ 94.7 µM) | 11 (≈ 20.4 µM) | 42 (≈ 78 µM) | 17 (≈ 31.6 µM) | 5 (≈ 9.28 µM) |  |  | 
O=C(/C=C/c1ccc(O)c(-c2cc(C(=O)/C=C/c3ccc(O)cc3)c(O)cc2O)c1)c1ccc(O)cc1O [RHUSCHALCONE VI] | 10 (≈ 19.6 µM) |  | 24 (≈ 47 µM) |  |  | 5 (≈ 9.79 µM) |  |  | 
